Reference: patent US9980963B2, “Treatment of cancer with dihydropyrazino-pyrazines” (Signal Pharmaceuticals, LLC, priority 2013, dated 2018)
Entries after “also recorded” stand apart in the source; their conditions may differ.

Experiments:
Format in all cases: cell-based, human
Wildtype CLL cells = test: Compound toxicity assay for CLL patient cells (wildtype); details: FIG. 1A; for sensitivity of wildtype CLL cells to the compound: single agent, feeder layer of CD40 ligand-expressing NIH 3T3 cells
del(11q) CLL cells = test: Compound toxicity assay for CLL patient cells (del(11q)); details: single agent; feeder layer of CD40 ligand-expressing NIH 3T3 cells; FIG. 1B
IGVH mutated CLL cells = test: CLL patient cells apoptosis assay (DioC6/PI); details: 48 hours; FIGS. 2A, E
From the text: (§1) CLL Patient Cells Apoptosis Assay. Patient material ([…] blood) was obtained from CLL patients (diagnosed according to the NCI-WG guidelines) after routine follow-up or diagnostic procedures at the department of hematology of the Academic Medical Center Amsterdam. Peripheral blood mononuclear cells (PBMCs) were isolated by Ficoll density gradient centrifugation and stored in liquid nitrogen, as cell suspension in heat-inactivated fetal calf serum containing 10% DMSO. During all in vitro experiments, cells were maintained in culture medium: Iscove's modified Dulbecco medium supplemented with 10% heat-inactivated FCS, 100 U/mL penicillin, […] gentamycin and 0.00036% β-mercaptoethanol. All samples contained at least 90% CD5+/CD19+ cells as assessed via flow cytometry. B-CLL cells were thawed and diluted to a concentration of 1.10^6 cells/mL in IMDM plus supplements as described above. […] Apoptosis was analyzed by evaluation of mitochondrial membrane potential with DioC6 (Molecular probes). Cells were incubated with 10 nM DioC6 for 30 minutes at 37° C. and 20 μg/mL propidium iodide was added to measure cell death. Expression of DioC6 was determined using the FACSCalibur flow cytometer and CellQuest software was used for data acquisition. Data were analyzed with FlowJo software (TreeStar, San Carlos, Calif., USA).

IGVH unmutated CLL cells = test: CLL patient cells apoptosis assay (DioC6/PI); details: 48 hours; FIGS. 2B, F
From the text: as §1

P53 mutated CLL cells = test: CLL patient cells apoptosis assay (DioC6/PI); details: 48 hours, FIGS. 2C
From the text: as §1

ATM mutated CLL cells = test: CLL patient cells apoptosis assay (DioC6/PI); details: 48 hours; FIGS. 2D, G
From the text: Patient material (pheripheral blood) was obtained from CLL patients (diagnosed according to the NCI-WG guidelines) after routine follow-up or diagnostic procedures at the department of hematology of the Academic Medical Center Amsterdam. Peripheral blood mononuclear cells (PBMCs) were isolated by Ficoll density gradient centrifugation and stored in liquid nitrogen, as cell suspension in heat-inactivated fetal calf serum containing 10% DMSO. During all in vitro experiments, cells were maintained in culture medium: Iscove's modified Dulbecco medium supplemented with 10% heat-inactivated FCS, 100 U/mL penicillin, 100 m/mL gentamycin and 0.00036% β-mercaptoethanol. All samples contained at least 90% CD5+/CD19+ cells as assessed via flow cytometry. […] Apoptosis was analyzed by evaluation of mitochondrial membrane potential with DioC6 (Molecular probes). Cells were incubated with 10 nM DioC6 for 30 minutes at 37° C. and 20 μg/mL propidium iodide was added to measure cell death. Expression of DioC6 was determined using the FACSCalibur flow cytometer and CellQuest software was used for data acquisition.

CLL cells [1] = test: Detection of apoptosis with QvD or NAC co-treatment (DiOC6/PI); details: 5 mM NAC, 48 hours
Experimental: Apoptosis levels were measured by Flow using DiOC6/PI staining and specific apoptosis was calculated. Results are shown as mean±SEM.
Where indicated, CLL cells were co-cultured in the presence/absence of 20 μM of the pancaspase inhibitor QvD or 5 mM N-acetyl-L-cysteine (NAC). CLL cell viability was measured by analysis of mitochondrial transmembrane potential by 3,3-dihexyloxocarbocyanine iodine (DiOC6; Invitrogen/Molecular Probes) and cell membrane permeability to propidium iodide (PI; Sigma Aldrich) using the FACS Calibur flow cytometer. Specific apoptosis is defined as [% cell death in drug treated cells]−[% cell death in medium control]/[% viable cells medium control]×100 using the Graphpad Prism software (Graphpad Prism 5.0, La Jolla, USA).

[2] = test system: mRNA of pro-/anti-apoptotic mediators in CLL cells; test: RT-MLPA of pro- and anti-apoptotic regulators; details: 1 μM, 24 hours
Experimental: Reverse Transcription-Multiplex Ligation-Dependent Probe Amplification Assay.
CLL Cells were harvested per stimulation, washed with PBS, resuspended in RNA lysis buffer (Qiagen, Venlo, the Netherlands) and stored at −80° C. RNA was isolated using the GenElute Mammalian Total RNA Miniprep kit (Sigma-aldrich). The concentration and purity of the RNA were determined with a NanoDrop spectrophotometer ND-1000 (NanoDrop Technologies, Willington, USA). Reverse transcription-multiplex ligation-dependent probe amplification assay (RT-MLPA) procedure was performed as described previously by Eldering et al. Nucleic Acids Res. 2003; 31:e153. In brief, 40-60 ng of total RNA of samples were first reverse transcribed using a gene-specific probe mix (R016-X2). The resulting cDNA was annealed overnight at 60° C. to the MLPA probes. The annealed oligonucleotides were covalently linked by Ligase-65 (MRC, Amsterdam, the Netherlands) at 54° C. […] Results were analyzed using the programs Genescan analysis and Genotypes (Applied Biosystems). Data was further analyzed with Microsoft Excel Spreadsheet software. Normalization was performed by setting the sum of all data per sample at 100% and individual peaks were calculated relative to the 100% value.

primary CLL cells = test: BCR-mediated adhesion of primary CLL cells to fibronectin; details: 1 μM pretreatment; IgVH unmutated samples; n=5
Experimental: Graphs are presented as normalized mean±SEM (100%=stimulated cells without inhibitors). *0.01≤P<0.05; **0.001≤P<0.01 (paired one sample T test) (n=5). BCR-mediated adhesion of primary CLL cells (FIG. 4) was tested.

phospho-S6 = test: Western blot of mTOR pathway, unstimulated CLL cells; details: 1 μM, 2 hours
Experimental: (§2) Protein lysates were probed for phospho-S6 and actin for loading control. Blots from three representative CLL samples are shown, of a total of five analyzed. […] Blots were probed for p-Akt(Thr308), p-Akt (Ser473), p-S6, p-4EBP1 and actin for loading control. Blots from two representative CLL samples shown, of a total of four analyzed.
(§3) Western blot analysis was performed using standard techniques [Hallaert et al. Blood 2008(112):5141-5149]. Samples (50 μg protein) were separated by 13% SDS-PAGE gel electrophoresis. Membranes were probed with anti-p-S6, p-4EBP1, p-Akt (Thr308), p-Akt (Ser473) (Cell Signaling), Bim (Stressgen Bioreagents Canada) and antiserum to β-actin (Santa Cruz Biotechnology) as loading control. Blots were subsequently incubated with IRDye 680 or 800 labelled secondary antibodies for 1 hour. Odyssey Imager (Li-Cor Biosciences) was used as a detection method according to the manufacturer's protocol. For the p-DNA-PK western blot, cells were lysed in RIPA sample buffer and sonificated. Samples (50 μg protein) were separated by mini protean TGX gels (Biorad). Transfer onto Immobilon-FL transfer membrane (Millipore) in 1× transfer buffer, 20% MeOH at 30 volts at 4° C. overnight. The following antibodies were used: p-DNA-PK (Ser2056) (Abcam), KAP (TIF1β), phosphorylated-KAP (phospho-TIF1β-ser824; Cell Signalling) and β-actin (Santa Cruz).

[3] = test system: p-S6, p-4EBP1, p-Akt (Ser473); test: Western blot of mTOR pathway, CD40L-activated CLL cells; details: 100, 500 or 1000 nM, 72 hours
Experimental: as §2, §3

CLL cells [4] = test: Blast cell formation of CD40L-cocultured CLL cells (FACS); details: CD40L coculture; 1 μM, 3 days
Experimental: FIG. 6A and FIG. 6B) Blast cell formation was assessed by FACS analysis and results are shown as mean±SEM. *0.01≤P<0.05; **0.001≤P<0.01; ***P<0.001 (paired one sample T test) FIG. 6C) CLL cells were examined for surface expression of CD95 (Fas), CD44, CD54 (ICAM) and CD58 (LFA-3) by flow cytometry. Results are shown as mean±SEM (n=6).

[5] = test system: CD95, CD54, CD58, CD44 on CLL cells; test: Expression of cell surface markers (flow cytometry); details: CD40L coculture; 1 μM, 3 days
Experimental: Expression of Cell Surface Markers.
Cells were washed and resuspended in staining media (phosphate-buffered saline (PBS) containing 0.5% (wt/vol) bovine serum albumin (BSA)). For analysis of expression of cell surface markers, different combinations of antibodies were used. CD54-PE and CD95-FITC purchased from Pharmingen. CD44-Alexa Fluor 700 was obtained from eBiosciences and CD58 from Immunotech. After incubation for 30 minutes at 4° C. protected from light, cells were washed twice in PBS/0.5% BSA and expression of cell surface markers was analyzed using FACSCalibur flow cytometry.

CLL cells [6] = test: CD40L coculture survival and fludarabine sensitivity assay (DiOC6/PI)
Experimental: (§4) FIG. 7A) Apoptosis was assessed by DiOC6/PI staining and results are shown as mean±SEM (n=7). *0.01≤P<0.05; **0.001≤P<<0.01; ***P<0.001 (paired T test). FIG. 7B) After 3 days, fludarabine sensitivity assay was performed. Apoptosis was assessed by DiOC6/PI staining and specific apoptosis are shown as mean±SEM (n=7). *0.01≤P<0.05; **0.001≤P<0.01 (paired T test) FIG. 7C) mRNA levels of pro-/anti-apoptotic mediators in CLL cells were measured by RT-MLPA (n=6). FIG. 7D) Protein lysates were probed for Bim and actin for loading control. Blots from two representative CLL samples shown, of a total of four analyzed.
CD40 stimulation inhibits spontaneous cell death as previously reported [Burger et al. Blood 2009(114):2560-2561]. Lymphocytes of CLL patients were stimulated by coculture with NIH3T3 fibroblasts stably transfected with human CD40L or negative control plasmid (3T3) as described before [Pascutti et al Blood 2013 2013; 122(17):3010-9]. […] After 72 hours of culture, CLL cells were detached and either used for flowcytrometic analyses or subsequently incubated with or without Fludarabine (Sigma) for an additional 48 hours. CLL cell viability was measured as by DiOC6/PI staining as described above. […] CD40L stimulation induces resistance to cytotoxic agents, including fludarabine [Kater et al. Brit J Haematology 2004; 127:404-415].

BIM and BID mRNA = test: RT-MLPA in CD40L triggered CLL cells; details: 1 μM, 3 days
Experimental: as §4

Bim = Bim protein Western blot in CD40L-cocultured CLL cells; details: CD40L coculture; 1 μM, 3 days
Experimental: as §4
as §3, with “Transfer onto Immobilon-FL transfer membrane (Millipore) in 1× transfer buffer, 20% MeOH at 30 volts at 4° C. overnight. The following antibodies were used: p-DNA-PK (Ser2056) (Abcam), KAP (TIF1β), phosphorylated-KAP (phospho-TIF1β-ser824; Cell Signalling) and β-actin (Santa Cruz).” left out

CLL cells [7] = test: CFSE proliferation assay of CLL cells on 3T40L cells with IL-21; details: CD40L + IL-21 (25 ng/ml); 1 μM, 4 days
Experimental: After 4 days, CFSE was measured by FACS. […] FIG. 8B) Division index was calculated with FlowJo program. […] PBMC (1.0×10^7/mL) were labelled with 0.5 μM carboxyfluorescein diacetate succinimidyl ester (CFSE, Molecular Probes) as described before [Pascutti et al Blood 2013 2013; 122(17):3010-9]. […] After 4 days, proliferation was assessed in a FACS Canto (BD Biosciences) and analyzed with FlowJosoftware (TreeStar, Ashland, Oreg.).

Compound: COc1cc([C@@H]2c3cc4c(cc3[C@@H](O[C@@H]3O[C@@H]5CO[C@@H](C)O[C@H]5[C@H](O)[C@H]3O)[C@H]3COC(=O)[C@H]23)OCO4)cc(OC)c1O [etoposide, reference compound]
- sensitivity of wildtype CLL cells to the compound (Wildtype CLL cells): highly sensitive
- sensitivity of del(11q) CLL cells to the compound (del(11q) CLL cells): largely resistant

Compound: CCN1C(=O)CNc2ncc(-c3ccc(-c4nc[nH]n4)nc3C)nc21 [Compound 1, 1-ethyl-7-(2-methyl-6-(1H-1,2,4-triazol-3-yl)pyridin-3-yl)-3,4-dihydropyrazino[2,3-b]pyrazin-2(1H)-one]
- enhancement of response by addition of Compound 1 to the etoposide regimen (Wildtype CLL cells; combination with etoposide, ATM-proficient CLL cells): did not significantly enhance
- sensitivity of wildtype CLL cells to the compound (Wildtype CLL cells): resistant
- sensitivity of del(11q) CLL cells to the compound (del(11q) CLL cells): exclusively sensitive
- induction of apoptosis (IGVH mutated CLL cells): induced apoptosis
- induction of apoptosis (IGVH unmutated CLL cells): induced apoptosis
- induction of apoptosis (P53 mutated CLL cells): induced apoptosis
- induction of apoptosis (ATM mutated CLL cells): induced apoptosis
- ROS dependence of cell death: effect of NAC co-treatment on cell death (CLL cells [1]): did not result in inhibition
- levels of pro- and anti-apoptotic regulators on RNA level, including p53-target genes [2]: not altered
- anti-IgM-stimulated integrin-mediated adhesion to fibronectin (primary CLL cells): strongly inhibited
- phosphorylation of S6 (phospho-S6): completely blocked
- p-4EBP1 upregulation [3]: completely blocked
- p-Akt (Ser473) upregulation [3]: completely blocked
- p-S6 upregulation [3]: completely blocked
- blast-like appearance / blast cell formation (CLL cells [4]): completely blocked
- 3T40L-induced upregulation of immune accessory molecules (CD95, CD54, CD58, CD44) [5]: significant inhibition
- fludarabine sensitivity (CLL cells [6]; 72 hours CD40L coculture, then fludarabine 48 hours): partly reversed
- CD40L-induced survival (CLL cells [6]; CD40L coculture, 1 μM, 3 days): inhibited
- CD40-induced fludarabine resistance (CLL cells [6]; co-treatment with Compound 1 during CD40L coculture, then fludarabine 48 hours): completely abolished
- CD40-mediated inhibition of BIM (RNA) (BIM and BID mRNA): blocked
- upregulation of BID (RNA) (BIM and BID mRNA): decreased
- CD40-mediated decreased expression of Bim protein (Bim): blocked
- proliferation of CLL cells (CLL cells [7]): completely blocks; also recorded: fully blocked
